Like-named read-outs stand apart in the source and are kept apart here.
Molecular target: T1, equine BChE (eqBChE) (Equus caballus, UniProt P81908)
T1 construct: purchased Sigma-Aldrich (Milan, Italy)
Experiment: Reversibility of inhibition vs. eqBChE (ultrafiltration and washing)
Type: biochemical
Conditions: for inhibition at 5.4 µM: compound 18 5.4 µM, eqBChE 1.25 U
Protocol: Moreover, it was evaluated whether the inhibition mechanism of carbamate 18 towards eqBChE is reversible, irreversible or pseudo-irreversible. For this purpose, the percentages of inhibition were determined both after one hour of the incubation of compound 18 (5.4 µM) with eqBChE (1.25 U), both following the removal of the inhibitor and the washing of the enzyme, carried out through ultrafiltration devices for the concentration of biological samples [35, 36]. To validate the method, the same study was performed with carbaryl (54 µM), a known carbamoylating cholinesterase inhibitor.
After the incubation phase, the solution containing the inhibitor not bound to the enzyme was removed by centrifugation, retaining eqBChE on the membrane of the ultrafiltration devices. Then the enzyme was washed with phosphate buffer, to remove the bound inhibitor and to restore the enzyme activity.
Three solutions were prepared in 0.1 M phosphate buffer (pH = 7.4), containing eqBChE (0.50 UmL^−1), DTNB (0.3 mM) and acetylthiocholine (10 mM), respectively. A solution of compound 18 in DMSO (2.7 mM) was prepared. Then six Vivaspin® were used: • three were prepared with 2.5 mL of eqBChE solution (0.50 UmL^−1) and 5 µL of inhibitor solution; • three were prepared with 2.5 mL of eqBChE solution (0.50 UmL^−1) and 5 µL of DMSO.
The Vivaspin® thus prepared were incubated for 1 h at 25 °C. After this time the percentage of inhibition was determined following the Ellman method. The blank was recorded by taking 500 µL from the Vivaspin® and diluting them in the cuvette in 2.5 mL of DTNB solution (0.3 mM). The reaction was activated by adding 30 μL of acetylthiocholine solution (10 mM), so as to obtain a final concentration of 100 µM in the cuvette. The absorbance variation was measured between 0.5 and 1.5 min at 412 nm, repeating the measurement for each of the six Vivaspin®.
After this procedure the first centrifugation of the Vivaspin® was carried out for 60 min at 4000 rpm and subsequently the solutions that crossed the membrane and settled in the filtrate tube were removed. In this way the solutions present in the concentrator body were concentrated up to 100 µL. To these solutions 1 mL of 0.1 M phosphate buffer (pH = 7.4) was added and the second centrifugation was carried out for 30 min at 4000 rpm. The solutions present in the concentrator body were concentrated up to 200 µL. The second washing was carried out, adding 1 mL of buffer and centrifuging for 30 min at 4000 rpm. The solutions present in the concentrator body were concentrated up to 250 µL. A third wash was carried out adding 1 mL of buffer and centrifuging for 50 min at 4000 rpm. The solutions present in the concentrator body were concentrated up to 150 µL. At this point, to recover the concentrated solution, the filtrate tube was removed, the concentrator body was turned upside down and inserted inside the concentrate recovery cap. The Vivaspin® was centrifuged for 10 min at 4000 rpm. After this time the recovered solution was taken up with 3 mL of DTNB solution (0.3 mM) and transferred into the cuvette: blank was recorded. The reaction was activated when 30 µL of substrate solution (10 mM) were added so as to have a final concentration of 100 µM in the cuvette. The absorbance variation between 0.5 and 1.5 min was measured at 412 nm, repeating the measurement for each of the recovered solutions.
As a positive control carbaryl was used, for which the same procedure was followed, using a 27 mM carbaryl stock solution in DMSO.

T1 sequence (P81908 whole entry): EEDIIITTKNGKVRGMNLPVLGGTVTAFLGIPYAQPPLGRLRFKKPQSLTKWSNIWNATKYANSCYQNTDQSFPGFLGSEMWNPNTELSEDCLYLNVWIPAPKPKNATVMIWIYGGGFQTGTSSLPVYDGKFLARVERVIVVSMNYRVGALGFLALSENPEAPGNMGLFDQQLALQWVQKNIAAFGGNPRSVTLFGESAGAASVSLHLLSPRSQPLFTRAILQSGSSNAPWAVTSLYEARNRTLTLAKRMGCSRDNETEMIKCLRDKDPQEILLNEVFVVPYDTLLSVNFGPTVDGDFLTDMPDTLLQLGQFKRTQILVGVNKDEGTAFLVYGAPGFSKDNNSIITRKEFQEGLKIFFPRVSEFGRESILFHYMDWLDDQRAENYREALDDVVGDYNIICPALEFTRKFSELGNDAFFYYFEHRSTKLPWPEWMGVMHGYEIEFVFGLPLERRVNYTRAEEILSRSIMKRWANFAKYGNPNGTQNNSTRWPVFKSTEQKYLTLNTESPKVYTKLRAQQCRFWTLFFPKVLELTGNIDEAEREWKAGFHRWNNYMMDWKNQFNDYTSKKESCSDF

O=C(NCCCCCCNc1ccccn1)Oc1ccccc1 [Compound 18, Phenyl (6-(pyridin-2-ylamino)hexyl)carbamate]
inhibition at 5.4 µM (after ultrafiltration and washing with phosphate buffer, read-out: percentage of inhibition of eqBChE after removal of inhibitor and washing of the enzyme): 56.7% | inhibition at 5.4 µM (before washing, read-out: percentage of inhibition of eqBChE after one hour of incubation): 89.7% | inhibition mechanism towards eqBChE (reversible, irreversible or pseudo-irreversible) (from restoration of enzymatic activity after washing): pseudo-irreversible

Source: PMC9227096, “Design, Synthesis, and In Vitro, In Silico and In Cellulo Evaluation of New Pyrimidine and Pyridine Amide and Carbamate Derivatives as Multi-Functional Cholinesterase Inhibitors” (Pharmaceuticals, 2022)
